Measured values published in patent publication US8158577B2, “Modulation of cartilage homeostasis by active domains of cell binding extracellular matrix molecules” (priority 2004, dated 2012).
“Also recorded” adds a separate entry of the source.

Columns and labels:
K105 cells [1] = assay: Effect on K105 cells already adherent to chondroadherin, light microscopy time study (FIG. 7, 9, 10); type: cell-based, human; settings: for spreading and aggregation or detaching of k105 cells adherent to chondroadherin (FIG. 10): peptide, anti β1 antibody or 5 mM EDTA added after 30 min, light microscopy after 1 and 3 hours; for spreading, migration and aggregation of k105 cells adherent to chondroadherin: peptide 250 μg/ml added after 30 min adhesion, light microscopy after 1, 3 and 20 hours
Method: (§1) To test cell binding, the chondrosarcoma cells or bovine chondrocytes were suspended in PBS containing 0.1% BSA, 25 U/ml collagenase and added to the wells (50,000/well), in the absence or presence of various peptide pools or the synthetic peptides (200, 100, 50, 25, 12.5 μg/ml). Non-adherent cells were removed after 1 hour and adhesion was determined by measuring lysosomal N-acetylglucosaminidase (12). Adhesion and spreading was visualized by light microscopy. In the time studies, k105 cells were allowed to adhere for 30 minutes, unbound cells were removed and medium without serum supplemented with or without peptides (250 μg/ml), β1 integrin antibody (clone P4C10, Gibco BRL), EDTA (5 mM) was added. Cell morphology was visualized by light microscopy after 1, 3 and 20 hours.
(§2) Tissue culture dishes were coated with 5 μg/ml chondroadherin expressed in E. coli and blocked for non-specific binding with BSA. The k105 cells were suspended in PBS containing 0.1% BSA, and added to the wells (50,000/well). Nonadherent cells were removed after 30 min by washing, plain medium without serum with or without peptides (250 μg/ml) was added and bound cells were visualized by light microscopy after 1, 3 and 20 hours.
as §2, with “The” for “The k105”, “hours. […] The activity for integrin binding is located in the C-terminal eight residues of the sequence involving the WLEAK (SEQ ID No. 1) sequence.” for “hours.”
as §2, with “washing, peptide, anti β1 antibody, 5 mM EDTA or” for “washing,”, “serum” for “serum with or without peptides (250 μg/ml)”, “1 and” for “1,”, “3” for “3 and 20”

K105 cells [2] = assay: Adhesion of K105 cells to chondroadherin in the presence of synthetic peptide (FIG. 3, 5A-5B, 13); type: cell-based, human; settings: 1 hour at 37° C.; for adhesion of k105 cells to chondroadherin in the presence of peptide: peptide 200, 100, 50, 25, 12.5 μg/ml
Method: Human cells (K9) originating from a human chondrosarcoma were a kind gift from Drs. Sven Inerot and Anders Lindahl, The Salgrenska University Hospital Gothenburg, Sweden. The K9 cells were cultured in Dulbeccos Modified Eagle Medium: Nutrient Mixture F12 (DMEM/F12 1:1) with GLUTAMAX I, supplemented with 10% fetal calf serum, 25 μg/ml ascorbic acid, 50 IU of penicillin and 50 μg/ml streptomycin (Life Technologies, Inc.). A different human cells line (K105) originating from a human chondrosarcoma was a kind gift from Dr. Sven Inerot, The Salgrenska University Hospital, Gothenburg, Sweden. The K105 cells were cultured in a mix of 40% Dulbeccos Modified Eagle Medium, 40% Minimum Essential Media (MEM) alpha Medium, 10% Nutrient Mixture F1 supplemented with 100 nM hydrocortisone, 100 ng/ml insulin, 10% fetal calf serum, 25 μg/ml ascorbic acid, 50 IU of penicillin and 50 μg/ml streptomycin (Life Technologies, Inc.). To harvest cells, culture dishes were rinsed three times with Ca^2+/Mg^2+-free PBS and the cells were incubated with 0.5% trypsin and 1 mM EDTA for 5 min. Detached cells were suspended in PBS containing 1 mg/ml trypsin inhibitor (Sigma) and then washed in PBS. To remove membrane-bound collagens the cells were treated with collagenase 100 U/ml (CLSPA; Worthington Biochemical Corp., Lakewood, N.J.) in PBS, 30 min. 37° C. and then washed in PBS.
(§3) Tissue culture 48-wells dishes (Nunclon, Nunc, Denmark) were coated overnight with 5 μg/ml chondroadherin in 4M Guanidine-HCl, 50 mM sodium acetate, pH 5.8, or for native protein in PBS. Alternatively coating was with 5 μg/ml collagen type II in PBS followed by after-coating with 0.5% BSA in PBS for 3 hours. Collagen type II was isolated from bovine nasal cartilage by pepsin digestion (11). Bacterially expressed chondroadherin was isolated as described above. Recombinant chondroadherin expressed in EBNA cell was cloned and purified as described elsewhere (8).
as §1
Study design: Tissue culture dishes (48-wells) were coated with 5 μg/ml chondroadherin expressed in E. coli and blocked for non-specific binding with BSA. […] were suspended in PBS containing 0.1% BSA, 25 U/ml collagenase and added to the wells (50,000/well) in the presence of synthetic peptide to be tested and allowed to adhere for 1 hour at 37° C. Nonadherent cells were removed by washing, and adhesion was determined by analyzing lysosomal hexosaminidase.
A 12-mer peptide (1947.01) plus an N-terminal cysteine (CQLRGLRRWLEAK) (SEQ ID NO. 3) representing the candidate sequence identified by mass spectrometry were synthesized and its ability to inhibit cell adhesion was determined. Tissue culture dishes were coated with 5 μg/ml chondroadherin expressed in E. coli and blocked for non-specific binding with BSA. The cells were suspended in PBS containing 0.1% BSA, 25 U/ml collagenase and added to the wells (50,000/well) in the presence of synthetic peptide (200, 100, 50, 25, 12.5 μg/ml) and allowed to adhere for 1 hour at 37° C. Nonadherent cells were removed by washing, and adhesion was determined by analyzing lysosomal hexosaminidase. […]

bovine chondrocytes = assay: Adhesion of bovine chondrocytes to human chondroadherin with or without cell binding peptides (FIG. 6); type: cell-based; settings: peptide 250 μg/ml, 1 hour at 37° C., 100,000 cells/well
Method: Bovine chondrocytes were isolated by collagenase (CLS1; Worthington Biochemical Corp., Lakewood, N.J.) digestion of articular cartilage from 4-6 month old calves as described (10). Briefly, cartilage slices were digested for 16 hours with collagenase in EBSS (Earle's balanced salt solution, GIBCO BRL Gaithersburg, Md.). The cells were filtered through a 100 μm nylon filter, washed three times in PBS containing 0.2% BSA (SERVA).
(§4) To test cell binding, the chondrosarcoma cells or bovine chondrocytes were suspended in PBS containing 0.1% BSA, 25 U/ml collagenase and added to the wells (50,000/well), in the absence or presence of various peptide pools or the synthetic peptides (200, 100, 50, 25, 12.5 μg/ml). Non-adherent cells were removed after 1 hour and adhesion was determined by measuring lysosomal N-acetylglucosaminidase (12). Adhesion and spreading was visualized by light microscopy. […]
Tissue culture dishes were coated with 5 μg/ml chondroadherin expressed in E. coli or collagen type II and blocked for non-specific binding with BSA. […] Adhesion was determined by analyzing lysosomal hexosaminidase. Adhesion is expressed as number of cells, 100,000 cells/well was seeded. […]

K105 cells [3] = assay: Adhesion of K105 cells to the coated cell binding peptides (FIG. 8); type: cell-based, human
Method: Tissue culture dishes were coated with 33 μg/ml (20 µM) peptide solution. The cells (50,000/well) were suspended in PBS containing 0.1% BSA, 25 U/ml collagenase and added to the wells in the presence or absence of synthetic peptide (250 μg/ml) and allowed to adhere for 1 hour at 37° C. Nonadherent cells were removed by washing. Spreading was visualized by light microscopy.

K105 cells [4] = assay: Adhesion of K105 cells to collagen type II in the presence of synthetic peptide (FIG. 5C-5D); type: cell-based, human; settings: peptide 250 μg/ml, 1 hour at 37° C.
Method: as §3, §4
Tissue culture dishes were coated with 5 μg/ml chondroadherin expressed in E. coli or collagen type II and blocked for non-specific binding with BSA. […] Spreading was visualized by light microscopy, and adhesion was determined by analyzing lysosomal hexosaminidase. Adhesion is expressed as number of cells where the data represent the average of two wells. […]

**Q.** With O=C(O)CN(CCN(CC(=O)O)CC(=O)O)CC(=O)O [EDTA, reference compound] as the compound, how does the “spreading and aggregation or detaching of k105 cells adherent to chondroadherin (FIG. 10)” value (K105 cells [1]) read?
**A.** cells detaching

**Q.** For “Ac-[CQLRGLRRWLEAKASRPDATC]-NH2 (Ac-CQLRGLRRWLEAKASRPDATC-NH2; also: cyclised (brackets), bond type not given here; listed as Homo sapiens) [SEQ ID No. 12]”, which “inhibitory effect on K105 cell adhesion to chondroadherin (Example II, FIG. 13)” value (K105 cells [2]) is on record?
**A.** inhibitory effect

**Q.** What does the source list for “CQLRGLRRWLEAK (N-terminal cysteine; listed as Homo sapiens) [12-mer peptide plus an N-terminal cysteine]”?
**A.** k105 cell adhesion to chondroadherin in the presence of peptide (K105 cells [2]; peptide 250 μg/ml): decreased; adhesion of k105 cells to chondroadherin in the presence of peptide (K105 cells [2]): able to inhibit; adhesion of k105 cells to chondroadherin in the presence of peptide (K105 cells [2]; listed as 12-mer peptide): decreased in a dose dependent manner; bovine chondrocyte adhesion to chondroadherin in the presence of peptide (bovine chondrocytes): decreased; adhesion and shape of k105 cells plated on the peptide (K105 cells [3]; dishes coated with 33 μg/ml peptide, 1 hour at 37° C.): adhere and remain round; inhibition of k105 adhesion to the coated peptide by the same peptide in solution (K105 cells [3]; peptide in solution 250 μg/ml): inhibited; spreading, migration and aggregation of k105 cells adherent to chondroadherin (K105 cells [1]): stimulated the cells to form aggregate; also recorded: prevented spreading and induced cells to form aggregate; spreading and aggregation or detaching of k105 cells adherent to chondroadherin (FIG. 10) (K105 cells [1]): prevented spreading and the cells formed aggregate; k105 cell adhesion to collagen type II in the presence of peptide (K105 cells [4]): not significantly affected

**Q.** For “H-LRRWLEAK-OH (listed as Homo sapiens) [SEQ ID No. 2]”, which “spreading, migration and aggregation of k105 cells adherent to chondroadherin” value (from here on “spreading, migration and aggregation”) (K105 cells [1]) is on record?
**A.** prevented spreading and induced cells to form aggregate

**Q.** How did the “spreading, migration and aggregation” value (K105 cells [1]) turn out when “H-QLRGLRRWLEAK-OH (listed as Homo sapiens) [SEQ ID No. 3]” was run?
**A.** prevented spreading and induced cells to form aggregates

**Q.** With QLRGLRRW (listed as Homo sapiens) as the compound, how does the “spreading, migration and aggregation” value (K105 cells [1]) read?
**A.** no effect
